# In patent publication US20250325570A1, “DOSE AND REGIMEN FOR A HETEROCYCLIC PHOSPHINIC COMPOUND” (PHOST'IN THERAPEUTICS, priority 2022, published 2025):
# Where “and” joins values, the source holds several entries; their conditions need not be identical. Identical values can stand only once. Like-named read-outs stand apart in the source and are kept apart here.
# Legend:
# [1] = First-in-human trial, dose escalation phase: full-course PK profiling of PST3.1a; type: in vivo; details: for AUC / C-max / T1/2 / T-Max: oral; for Pre dosing: oral bid
# Source text: The proposed clinical trial is a first-in-human trial (FIH) in patients with advanced solid tumours, including a dose escalation phase (part I) enrolling patients with any type of tumour with safety/tolerability as the primary endpoint, pharmacokinetics, evaluation of a potential food effect, and efficacy as secondary endpoints, followed by an expansion phase (part II) recruiting patients with glioblastoma (GBM—23 patients, cohort 1), triple negative breast cancer (TNBC—15 patients, cohort 2) and other selected solid tumours (30 patients, cohort 3). The dose for the expansion phase is selected based on the results of the escalation phase. Pharmacodynamics and response prediction is an exploratory objective of this whole FIH study.
# To characterize the pharmacokinetics (PK) profile of PST3.1a by establishing the PK profile of the drug including assessment of a potential food effect on drug exposure.
# A standard 3+3 design is followed for the escalation phase. PST3.1a is administered orally twice a day (bid) continuously in cycles of 21 days. At each Dose Level (DL), three patients are included and the first patient is observed for at least 21 days before enrolling the following two. Three additional patients are enrolled at each DL if a Dose Limiting Toxicity (DLT) is observed in the first three patients. No intra-patient dose escalation is allowed. The Maximum Tolerated Dose (MTD) is defined as the highest dose at which a DLT is observed in 0/3 or 1/6 patients and is considered as the recommended phase 2 dose (RP2D).
# The dose escalation phase includes two steps: • In step 1, one dose (DL1) of PST3.1a is tested, corresponding to the dose of 10 mg/kg/day bid.
# Two full-course PK profiling are obtained for each patient: one at C1D1 (Cycle 1/Day 1) in fasted state patients and another at C2D1 (Cycle 2/Day 1) in fed state patients (omitting the evening dose of PST3.1a on CID1 and C2D1). • In step 2, three DL (DL2a to 4a) with PST3.1a administered to fasted patients at the dose of 20, 40 and 70 mg/kg/day bid (i.e. twice a day), respectively, and/or three DL (DL2b to 4b) with PST3.1a administered to fed patients at the dose of 10, 20 and 40 mg/kg/day bid, respectively, could be opened.
# For each patient included in the second step of the dose escalation, a full-course PK profiling is performed: • a. for DL2a, 3a and 4a, at C1D1 in fasted state; • b. for DL2b, 3b and 4b at C1D1 in fed state; • c. for DL2b only, 4 days before beginning treatment (C1D4), in fasted state.
# PST3.1a is supplied as a drinkable solution in vials of 2 mL and 10 mL. Patients are provided with an appropriate number of 2 mL and 10 mL vials, as well as with a specific dosing device, in order to combine them to reach the appropriate volume. Volumes of DP to be administered at each dosing occasion are rounded in a standardized way according to patient body weight range, as described in Table 2.
# PST3.1a is administered per os every 12±1 hours to fasted patients or after a regular meal, according to the schedule of the DL in which the patient is included. Fasting is defined as no food intake for 2 hours before and two hours after study drug administration. Cycles is of 21 days. If treatment is delayed for reasons other than toxicity, a maximal delay of 1 day is accepted.
# [2] = Dynamic vapor sorption (DVS) analysis of the crystalline form; type: physicochemical
# Source text: In a particular embodiment, the crystalline form of the invention is non-hygroscopic.
# [3] = DL1 = 10 mg/kg/day, FED patients
# [4] = DL1 = 10 mg/kg/day, fasted patients
# [5] = DL2 = 20 mg/kg/day, fasted patients
# [6] = DL3 = 40 mg/kg/day, fasted patients
compound,measurement,setting,value
"O=[P@@]1(c2ccccc2)O[C@H](COCc2ccccc2)[C@@H](OCc2ccccc2)[C@H](OCc2ccccc2)C1O (some centres unmarked) [PST3.1a, 3-Hydroxy-4,5-bis-benzyloxy-6-benzyloxymethyl-2-phenyl-2-oxo-2λ5-[1,2]oxaphosphinane]",Food effect on drug exposure (fed vs fasted patients),"[1]; DL1 = 10 mg/kg/day, comparison of Table 4",significative fed effect
same,AUC,[1]; [3],426 ng·h/mL
same,C-max,[1]; [3],43 ng/mL and 27.9 ng/mL
same,T1/2,[1]; [3],11.7 h
same,AUC,[1]; [4],225 ng·h/mL
same,C-max,[1]; [4],42 ng/mL and 28 ng/mL
same,T1/2,[1]; [4],8.1 h
same,Pre dosing,[1]; [5],20.6 ng/mL
same,C-max,[1]; [5],67.7 ng/mL
same,T-Max,[1]; [5],1 h
same,Pre dosing,[1]; [6],25.4 ng/mL and 46.3 ng/mL
same,AUC,[1]; [6],650.6 ng·h/mL and 626.6 ng·h/mL
same,C-max,[1]; [6],56.2 ng/mL and 97.6 ng/mL and 108.9 ng/mL
same,T-Max,[1]; [6],1.5 h and 2 h (2×)
same,half-life,"[1]; human, in vivo, po, 10 mg/kg/day, DL1 = 10 mg/kg/day, FED patients",17.5 h
same,half-life,"[1]; human, in vivo, po, 10 mg/kg/day, DL1 = 10 mg/kg/day, fasted patients",9.2 h
same,AUC,"[1]; human, in vivo, po, 10 mg/kg/day, DL1 = 10 mg/kg/day, FED patients, read-out: AUC",587 ng·h/mL
same,AUC,"[1]; human, in vivo, po, 10 mg/kg/day, DL1 = 10 mg/kg/day, fasted patients, read-out: AUC",310 ng·h/mL
same,half-life,"[1]; human, in vivo, po, 20 mg/kg/day, DL2 = 20 mg/kg/day, fasted patients",7.9 h
same,AUC,"[1]; human, in vivo, po, 20 mg/kg/day, DL2 = 20 mg/kg/day, fasted patients, read-out: AUC",340 ng·h/mL
same,AUC,"[1]; human, in vivo, po, 40 mg/kg/day, DL3 = 40 mg/kg/day, fasted patients, read-out: AUC",336 ng·h/mL
same,Hygroscopicity,[2]; crystalline form,non-hygroscopic
same,Weight loss in DVS analysis,[2]; relative humidity range 0% RH to 95% RH,lower than 0.1%
